Reference: PMC6154738, “Anti-Onchocerca and Anti-Caenorhabditis Activity of a Hydro-Alcoholic Extract from the Fruits of Acacia nilotica and Some Proanthocyanidin Derivatives” (Molecules : A Journal of Synthetic Chemistry and Natural …, 2017)
≈ marks a conversion by molar mass, not a printed value. Where two headings read alike, the source gives them in different places.

Key:
[1] = system: C. elegans CB211 (lev-1(e211) IV); assay: microbe, parasite or virus in culture; details: Caenorhabditis elegans, 48 h
Procedure: (§1) All strains were obtained from the Caenorhabditis Genetic Centre (CGC, Minneapolis, MN, USA). Strains were maintained at 20 °C on nematode growth medium (NGM). All worms were age-synchronized and obtained from eggs that were isolated by bleaching.
(§2) Young adult (L4 stage) worms were used to assess drug lethality. Monitored endpoint was 48 h mortality. Tests were performed in 24-well plates. Five hundred (500) microliters of test solution, which is M9-buffer (3 g KH2PO4, 6 g Na2HPO4, 5 g NaCl, 0.25 g MgSO4.7H2O, in 1 L of water after been autoclaved supplemented with 2% glucose, 0.5% cholesterol), were distributed in 24-well plates. The volume of M9-buffer equivalent to the drug to be added for each drug final concentration (in each test, three to six concentrations were used) was removed. Untreated worms in M9-buffer were used as negative control. […] Crude extract fraction (stock solution at 100 mg/mL) and pure compound (stock solution at 100 mg/mL) previously dissolved in M9-buffer were then added in well plates at increasing concentration (varying from 0 to 1000 or 1500 µg/mL for extract and fractions; 0 to 100 or 150 µg/mL). The young adult (10 to 15 ± 2) from the axenic culture (without food source) were then added at the test solution. […] Treatments were replicated three times.

[2] = system: C. elegans DA1316 (avr-14(ad1302) I avr-15(ad1051) glc-1(pk54)); assay: microbe, parasite or virus in culture; details: Caenorhabditis elegans, 48 h
Procedure: as §1, §2

[3] = system: C. elegans VC722 (glc-2(ok1047) I); assay: microbe, parasite or virus in culture; details: Caenorhabditis elegans, 48 h
Procedure: as §1, §2

[4] = system: C. elegans N2 Bristol WT; assay: microbe, parasite or virus in culture; details: for LC50: Caenorhabditis elegans, 48 h; for Selectivity Index (SI) C. elegans Wild Type: SI = CC50 on Caco-2/LC50 on worm
Procedure: as §1, §2

[5] = system: C. elegans CB3474 (ben-1(e1880) III); assay: microbe, parasite or virus in culture; details: Caenorhabditis elegans, 48 h
Procedure: as §1, §2

[6] = system: C. elegans ZZ16 (lev-9(x16) X); assay: microbe, parasite or virus in culture; details: Caenorhabditis elegans, 48 h
Procedure: as §1, §2

[7] = system: O. ochengi females; assay: microbe, parasite or virus in culture; design: species or system Onchocerca ochengi; details: for LC50: Onchocerca ochengi, 48 h; for Selectivity Index (SI) O. ochengi Females: SI = CC50 on Caco-2/LC50 on worm
Procedure: The adult female worms were isolated by digestion of the nodules with collagenase at 37 °C. The female worms were cultured in a CO2-incubator [67]. For anthelmintic activity, they were incubated with the crude extracts, fractions and pure compounds.
(§3) Adult worms (six individuals per well for males and one per well for the female) and Mf were washed twice and were subsequently transferred to RPMI-1640 medium supplemented with L-glutamine, 100 U/mL penicillin and 100 µg/mL streptomycin and incubated at 37 °C in 24-well plates (96-well plate for Mf) with different concentrations of the drugs tested. Worm mortality was checked by observation under the binocular microscope after 48 h. After shaking, immotile and fully-elongated worms were considered to be dead. All tests were done in three independent triplicate determinations.

[8] = system: O. ochengi males; assay: microbe, parasite or virus in culture; design: species or system Onchocerca ochengi; details: for LC50: Onchocerca ochengi, 48 h; for Selectivity Index (SI) O. ochengi Males: SI = CC50 on Caco-2/LC50 on worm
Text: The adult male worms were isolated as previously describe by Ndjonka et al. from fresh pieces of cattle skin (cow-udder) with palpable nodules obtained from the communal slaughter house of Ngaoundere in the Adamawa region of Cameroon. Nodules removed from the skin were brought to the laboratory, washed, drained and sterilized with 70% ethanol for dissection. After dissection of nodules, O. ochengi were extracted, isolated and washed three times in sterile phosphate-buffered saline (PBS). To analyze the anthelmintic activity of extract, fractions and pure compounds, the worms were incubated at 37 °C.
as §3

[9] = system: Wistar rats; assay: Acute oral toxicity on rats
Text: Adult Wistar rats (Rattus norvegicus), males aged 7 to 8 weeks and weighing 150 to 200 g, used for the experiments were obtained from LANAVET (Laboratoire National Vétérinaire, Garoua, Cameroon). The rats were acclimatized for one week in the Veterinary Research Laboratory of the Institute of Agricultural Research for Development, Wakwa, Cameroon, before initiating experiments. Animals were housed in groups of three (one group for the negative control, six groups for each drug at the first phase, six others at the second phase) under ambient temperatures (23 °C ± 1 °C) with relative humidity 55 ± 5% and 12 h light/dark cycle in polycarbonate cages. […] They were monitored by a veterinarian for health status.
Acute oral toxicity (LD50, that is the dose that kills 50% of animals of the tested group) was measured using the method of the OECD guidelines for the testing of chemicals [56] following the European Community guidelines for the protection of animals used in experiments [69] and respecting the 3Rs (Replacement, Refinement, Reduction) [70]. Drugs in distilled water were orally administered separately at doses of 10 mg/kg, 100 mg/kg and 1000 mg/kg body weight. The negative controls were distilled water-administered rats. They were given to three groups of three rats each and observed for 24 h. […] The test was done at a single oral dose for each rat in a 5 mL/kg volume. The experimental animals were starved for 24 h before and 4 h after treatment. […] The appearance of toxic symptoms, such as behavioral changes, locomotion, convulsions and mortality, was observed and recorded. Animals were observed constantly for the first 30 min after administration and, thereafter, every 4 h up to 24 h and, subsequently, once a day for up to 14 days.

[10] = In vitro cytotoxicity (MTT) and CC50 determination; assay type: cell-based; details: human; for CC50 at 48 h: Caco-2, CC50 after 48 h calculated in µM, read-out: Cytotoxicity CC50, Caco-2 (in brackets) (converted); for CC50 at 72 h: Caco-2, MTT, read-out: Cytotoxicity, means CC50 ± SD, Caco-2
Procedure: Cell culture: […] cells at Passage 70 were kindly provided by Prof. Hensel, Institute of Pharmaceutical Biology and Phytochemistry, University of Münster, and were cultured as previously describe by Zumdick et al..
Cytotoxicity test: The cytotoxicity assays were performed according to the method of Rahman et al.. Briefly, 1.5 × 10^4 viable cells/well were seeded in a 96-well plate and incubated for 24 to 48 h. […] DMEM samples were used as the negative control. […] The medium was removed, and formazan, generated by the activity of dehydrogenases, was solubilized with 70 µL of acidified isopropanol (0.4 M HCl). The amount of MTT-formazan that is directly proportional to the number of living cells was determined by measuring the optical density (OD) at 540 nm using a spectrophotometer. All controls used were treated equally. As control and to determine 100% growth, Caco-2 cells were grown in the absence of drugs so as to calculate cell viability. All determinations were performed in triplicate. […] The selectivity index (SI) values were calculated as the ratio: SI = CC50 of drug on Caco2/LC50 of drug on worm.

[11] = system: O. ochengi microfilariae; assay: microbe, parasite or virus in culture; design: species or system Onchocerca ochengi; details: for LC50: Onchocerca ochengi, 48 h; for Selectivity Index (SI) O. ochengi Microfilariae: SI = CC50 on Caco-2/LC50 on worm
Procedure: Microfilariae were isolated as describe by Cho-Ngwa et al. and Ndjonka et al.. About 10 skin snips were obtained from different locations of the skin. The skin snips were then incubated at 37 °C in PBS to let Mf emerge. The highly motile Mf were concentrated by centrifugation at 400× g for 10 min and quantified. The Mf were incubated at 37 °C with the crude extract, fractions and pure compounds.
as §3

[12] = system: O. ochengi; details: cited from earlier work
[13] = system: O. ochengi; assay: Anti-Onchocerca activity, all forms of the parasite (summary statements); details: read-out: LC50 against O. ochengi (all three forms)
Procedure: as §3

[14] = read-out: LC50/48 h (in brackets)
[15] = Phase 1, 10 mg/kg single oral dose
[16] = Phase 1, 100 mg/kg single oral dose
[17] = Phase 1, 1000 mg/kg single oral dose
[18] = Phase 2, 1500 mg/kg single oral dose
[19] = Phase 2, 3000 mg/kg single oral dose
[20] = Phase 2, 5000 mg/kg single oral dose

SMILES	LC50 ([1]; read-out: LC50/48 h) [µg/mL]	LC50 [1, 14] [µM]	LC50 ([2]; read-out: LC50/48 h) [µg/mL]	LC50 [2, 14] [µM]	LC50 ([4]; read-out: LC50/48 h) [µg/mL]	LC50 [4, 14] [µM]	Selectivity Index (SI) C. elegans Wild Type [4]	LC50 ([5]; read-out: LC50/48 h) [µg/mL]	LC50 ([6]; read-out: LC50/48 h) [µg/mL]	LC50 ([7]; read-out: LC50/48 h) [µg/mL]	LC50 [7, 14] [µM]	Selectivity Index (SI) O. ochengi Females [7]	LC50 ([8]; read-out: LC50/48 h) [µg/mL]	LC50 [8, 14] [µM]	Selectivity Index (SI) O. ochengi Males [8]	CC50 at 48 h [10] [µM]	CC50 at 72 h [10] [µg/mL]	LC50 ([11]; read-out: LC50/48 h) [µg/mL]	LC50 [11, 14] [µM]	Selectivity Index (SI) O. ochengi Microfilariae [11]	other results
O=C(O[C@H]1Cc2c(O)cc(O)cc2O[C@@H]1c1ccc(O)c(O)c1)c1cc(O)c(O)c(O)c1 [CG, (+)-catechin-3-O-gallate]	96.4 ± 0.1	218	96.3 ± 0.3	218	90.6 ± 0.07	205	0.7	95.2 ± 0.3	95.3 ± 0.1	4.5 ± 0.3	10.2	14.7	7.6 ± 0.2	17.2	8.7	150	66.3 ± 0.6 (≈ 150 µM)	4.2 ± 0.1	9.4	15.8	LC50 ([3]; read-out: LC50/48 h): 91.8 ± 0.3 µg/mL; LC50 [3, 14]: 208 µM; LC50 [5, 14]: 215 µM; LC50 [6, 14]: 215 µM; Mortality of rats: rat number end/start [9, 15]: 0/3; Mortality of rats: rat number end/start [9, 16]: 0/3; Mortality of rats: rat number end/start [9, 17]: 0/3; Mortality of rats: rat number end/start [9, 18]: 0/3; Mortality of rats: rat number end/start [9, 19]: 0/3; Mortality of rats: rat number end/start [9, 20]: 0/3
CCCCC/C=C\C/C=C\CCCCCCCC(=O)O [linoleic acid]	–	–	–	–	–	–	–	–	–	–	–	–	–	–	–	–	–	–	–	–	LC50 [12]: 55.7 µM
c1ccc([C@H]2CN3CCSC3=N2)cc1 [Levamisole, reference compound]	> 100	–	–	–	1.4 ± 0.2	7.2	–	–	> 100	2.1 ± 0.1	10.2	13.0	1 ± 1	5.1	27.3	31.2	27.3 ± 0.8 (≈ 134 µM)	1 ± 0.3	5.1	27.3	–
Oc1cc(O)c2c(c1)O[C@H](c1cc(O)c(O)c(O)c1)[C@H](O)C2 [EGC, (−)-epigallocatechin]	83.3 ± 0.6	272	87.5 ± 0.5	286	62.7 ± 0.2	205	0.8	53.8 ± 0.9	92 ± 0.3	3.3 ± 0.6	10.6	14.3	2.1 ± 0.4	6.8	22.4	154	47.1 ± 0.5 (≈ 154 µM)	3.3 ± 0.5	10.6	14.3	LC50 ([3]; read-out: LC50/48 h): 93.8 ± 0.3 µg/mL; LC50 [3, 14]: 306 µM; LC50 [5, 14]: 176 µM; LC50 [6, 14]: 301 µM; Mortality of rats: rat number end/start [9, 15]: 0/3; Mortality of rats: rat number end/start [9, 16]: 0/3; Mortality of rats: rat number end/start [9, 17]: 0/3; Mortality of rats: rat number end/start [9, 18]: 0/3; Mortality of rats: rat number end/start [9, 19]: 0/3; Mortality of rats: rat number end/start [9, 20]: 0/3
O=C(OC1Cc2c(O)cc(O)cc2OC1c1cc(O)c(O)c(O)c1)c1cc(O)c(O)c(O)c1 (single isomer, unassigned; (-)) [EGCG, (−)-epigallocatechin-3-O-gallate]	26.3 ± 1.3	57.4	40.8 ± 0.3	89.1	49.8 ± 0.8	109	1.2	35.7 ± 1	> 100	1 ± 0.5	2.3	60.9	1.2 ± 0.5	2.6	50.8	133	60.9 ± 0.8 (≈ 133 µM)	1.3 ± 0.2	2.8	46.9	LC50 ([3]; read-out: LC50/48 h): 43.7 ± 2.1 µg/mL; LC50 [3, 14]: 95.4 µM; LC50 [5, 14]: 77.9 µM; LC50 [13]: < 2.5 µg/mL
Oc1cc(O)c2c(c1)O[C@H](c1cc(O)c(O)c(O)c1)[C@@H](O)C2 [GC, (+)-gallocatechin]	21.5 ± 0.3	70.2	82.5 ± 0.1	269	74.3 ± 0.3	242	0.9	83.1 ± 0.1	65.6 ± 0.2	5.5 ± 0.3	18	12.1	4.2 ± 0.1	13.6	15.9	218	66.7 ± 0.7 (≈ 218 µM)	3.2 ± 0.3	10.4	20.8	LC50 ([3]; read-out: LC50/48 h): 96.3 ± 0.07 µg/mL; LC50 [3, 14]: 314 µM; LC50 [5, 14]: 271 µM; LC50 [6, 14]: 214 µM; Mortality of rats: rat number end/start [9, 15]: 0/3; Mortality of rats: rat number end/start [9, 16]: 0/3; Mortality of rats: rat number end/start [9, 17]: 0/3; Mortality of rats: rat number end/start [9, 18]: 0/3; Mortality of rats: rat number end/start [9, 19]: 0/3; Mortality of rats: rat number end/start [9, 20]: 0/3
CCCSc1ccc2nc(NC(=O)OC)[nH]c2c1 [Albendazole, reference compound]	–	–	–	–	–	26.4	4.1	> 100	–	1 ± 0.2	3.9	29.4	4.2 ± 0.3	15.7	7	111	29.4 ± 0.5 (≈ 111 µM)	2.1 ± 0.5	7.8	14	Mortality of rats: rat number end/start [9, 15]: 0/3; Mortality of rats: rat number end/start [9, 16]: 0/3; Mortality of rats: rat number end/start [9, 17]: 0/3; Mortality of rats: rat number end/start [9, 18]: 0/3; Mortality of rats: rat number end/start [9, 19]: 0/3; Mortality of rats: rat number end/start [9, 20]: 0/3
